The target in the assay is T1, chimeric human H3 receptor (Homo sapiens, UniProt Q9Y5N1, E19D).
T1 construct: made in house; host or cells: Sf9 insect cells (baculovirus infection); P2 membrane preparation
The experiment in a line: Chimeric human H3 receptor GTP binding assay (agonist-stimulated GTP-gamma35S binding, Example 7). It is filed as biochemical. The method in brief:
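Sf9 membranes co-expressing the chimeric receptor and heterotrimeric G-protein subunits, 35 μg protein per tube, in pH 7.4 Tris buffer with 10 μM GDP. Test compounds at 10^−10 to 10^−6 M with 1 μM histamine, 60 min at room temperature. Filter-bound GTP-gamma^35S read by scintillation; IC50 from non-linear regression of dose-response curves.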

[1] abbreviates: Table II, assay of Example 7, "*" in Ki, read-out: Ki.
[2] abbreviates: Table II "Ki", symbol "*": Ki in the assay of Example 7, read-out: Ki.
[3] abbreviates: assay of Example 7, "*" in Ki of Table II, read-out: Ki.
The mark [4] stands for this setting: assay of Example 7, symbol * in column headed Ki of Table II, read-out: Ki.
Where [5] appears, read: Table II, "*" in Ki, assay of Example 7, read-out: Ki.
Where [6] appears, read: "*" in Ki of Table II, assay of Example 7, read-out: Ki.

Like-named read-outs stand apart in the source and are kept apart here.

T1 sequence (Q9Y5N1 with tags, fused parts or gaps E19D): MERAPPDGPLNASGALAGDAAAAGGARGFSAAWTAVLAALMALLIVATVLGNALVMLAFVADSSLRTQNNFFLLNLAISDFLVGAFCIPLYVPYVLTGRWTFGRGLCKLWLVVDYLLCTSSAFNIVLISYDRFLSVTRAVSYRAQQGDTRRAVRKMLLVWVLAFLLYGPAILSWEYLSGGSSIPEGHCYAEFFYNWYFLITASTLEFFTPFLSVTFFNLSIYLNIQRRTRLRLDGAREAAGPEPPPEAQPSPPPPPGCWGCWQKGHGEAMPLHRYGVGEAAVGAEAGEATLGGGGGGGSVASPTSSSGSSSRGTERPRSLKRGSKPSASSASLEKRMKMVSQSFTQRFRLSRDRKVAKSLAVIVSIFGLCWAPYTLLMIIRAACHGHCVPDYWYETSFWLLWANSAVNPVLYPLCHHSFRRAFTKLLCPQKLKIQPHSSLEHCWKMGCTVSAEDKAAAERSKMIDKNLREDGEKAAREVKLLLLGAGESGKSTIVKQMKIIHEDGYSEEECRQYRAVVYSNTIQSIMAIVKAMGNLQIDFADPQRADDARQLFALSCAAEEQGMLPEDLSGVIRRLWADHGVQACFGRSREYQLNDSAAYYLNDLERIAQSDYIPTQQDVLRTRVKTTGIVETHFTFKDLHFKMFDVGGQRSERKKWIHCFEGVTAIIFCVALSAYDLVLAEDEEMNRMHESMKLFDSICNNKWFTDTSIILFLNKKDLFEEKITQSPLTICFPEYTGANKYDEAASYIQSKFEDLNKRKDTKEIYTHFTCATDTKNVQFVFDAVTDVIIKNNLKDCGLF

`COc1ccc(OC)c(-c2cnc(N3CCN(CC(=O)N4CCN(C5CCC5)CC4)CC3)cn2)c1` [Compound 953, 2-{4-[2-(4-cyclobutylpiperazin-1-yl)-2-oxoethyl]piperazin-1-yl}-5-(2,5-dimethoxyphenyl) pyrazine]: the Ki (as a rule, the dissociation constant of the complex between target and ligand, obtained from inhibition or displacement) under setting [1] is under 1000 nM.

In the case of `O=C(CN1CCN(c2cnc(-c3ccccc3C(F)(F)F)cn2)CC1)N1CCN(C2CCC2)CC1` [Compound 969, 2-{4-[2-(4-cyclobutylpiperazin-1-yl)-2-oxoethyl]piperazin-1-yl}-5-[2-(trifluoromethyl)phenyl] pyrazine], the inhibition constant Ki under setting [1] is under 1000 nM.

Consider `O=C(CN1CCN(c2cccc(C(F)(F)F)c2)CC1)N1CCN(C2CCCC2)CC1` [Compound 827, 1-cyclopentyl-4-({4-[3-(trifluoromethyl)phenyl]piperazin-1-yl}acetyl)piperazine], for which the Ki was under 1000 nM.

For the compound `O=C(CN1CCN(c2ccc(-c3cc(Cl)cc(Cl)c3)nn2)CC1)N1CCN(C2CCC2)CC1` [Compound 1050, 3-{4-[2-(4-cyclobutylpiperazin-1-yl)-2-oxoethyl]piperazin-1-yl}-6-(3,5-dichlorophenyl)pyridazine], under setting [1], the inhibitory constant (Ki) was under 1000 nM.

With `CCN1CCN(C(=O)CN2CCN(c3ccc(OC)cc3)CC2)CC1` [Compound 843, 1-ethyl-4-{[4-(4-methoxyphenyl)piperazin-1-yl]acetyl}piperazine], the inhibitory constant (Ki) is under 1000 nM.

Turning to `COc1ccc(C(C)C)cc1-c1ccc(N2CCN(CC(=O)N3CCN(C4CCC4)CC3)CC2)cc1` [Compound 793, 1-cyclobutyl-4-{[4-(5′-isopropyl-2′-methoxybiphenyl-4-yl)piperazin-1-yl]acetyl}piperazine], the inhibitory constant (Ki) under setting [2] was under 1000 nM.

For the compound `COc1ccc(C(=O)NC2CCN(CC(=O)N3CCN(C4CCC4)CC3)CC2)cc1F` [Compound 1214, N-{1-[2-(4-cyclobutylpiperazin-1-yl)-2-oxoethyl]piperidin-4-yl}-3-fluoro-4-methoxybenzamide], the Ki under setting [3] is under 1000 nM.

As to `Cc1cccc(C)c1N1CCN(CC(=O)N2CCN(C(C)C)CC2)CC1` [Compound 268, 1-(2,6-dimethylphenyl)-4-[2-(4-isopropylpiperazin-1-yl)-2-oxoethyl]piperazine], under setting [4], the Ki was under 1000 nM.

`Cc1cc(C)c(-c2ccc(N3CCN(CC(=O)N4CCN(C5CCC5)CC4)CC3)cc2)c(C)c1` [Compound 673, 1-cyclobutyl-4-{[4-(2′,4′,6′-trimethylbiphenyl-4-yl)piperazin-1-yl]acetyl}piperazine]: the Ki under setting [5] was under 1000 nM.

For `CC(C)N1CCN(C(=O)CN2CCN(c3ccc(F)c(C(F)(F)F)c3)CC2)CC1` [Compound 468, 1-[4-fluoro-3-(trifluoromethyl)phenyl]-4-[2-(4-isopropylpiperazin-1-yl)-2-oxoethyl]piperazine], the inhibitory constant (Ki) under setting [6] is under 1000 nM.

As for `CCCc1ccc(C(=O)NC2CCN(CC(=O)N3CCN(C4CCC4)CC3)CC2)cc1` [Compound 1218, N-{1-[2-(4-cyclobutylpiperazin-1-yl)-2-oxoethyl]piperidin-4-yl}-4-propylbenzamide], the Ki under setting [3] was under 1000 nM.

As to `CCCOc1ccc(-c2ccc(N3CCN(CC(=O)N4CCN(C5CCC5)CC4)CC3)nn2)cc1` [Compound 1037, 3-{4-[2-(4-cyclobutylpiperazin-1-yl)-2-oxoethyl]piperazin-1-yl}-6-(4-propoxyphenyl) pyridazine], under setting [1], the Ki was under 1000 nM.

As to `O=C(CN1CCN(c2ccc(-c3ccc(Cl)c(C(F)(F)F)c3)cc2)CC1)N1CCN(C2CCC2)CC1` [Compound 463, 1-[4′-chloro-3′-(trifluoromethyl)biphenyl-4-yl]-4-[2-(4-cyclobutylpiperazin-1-yl)-2-oxoethyl]piperazine], the Ki under setting [6] was under 1000 nM.

Turning to `CCC(C)N1CCN(C(=O)CN2CCN(c3ccc(Cl)c(C)c3)CC2)CC1` (centres unmarked) [Compound 878, 1-sec-butyl-4-{[4-(4-chloro-3-methylphenyl)piperazin-1-yl]acetyl}piperazine], the Ki under setting [2] is under 1000 nM.

For the compound `CCOC(=O)c1ccc(-c2cnc(N3CCN(CC(=O)N4CCN(C5CCC5)CC4)CC3)cn2)cc1` [Compound 1197, ethyl 4-(5-{4-[2-(4-cyclobutylpiperazin-1-yl)-2-oxoethyl]piperazin-1-yl}pyrazin-2-yl)benzoate], the Ki under setting [3] was under 1000 nM.

Consider `Cc1ccc(F)c(-c2ccc(N3CCN(CC(=O)N4CCN(C5CCC5)CC4)CC3)cc2)c1Cl` [Compound 273, 1-(2′-chloro-6′-fluoro-3′-methylbiphenyl-4-yl)-4-[2-(4-cyclobutylpiperazin-1-yl)-2-oxoethyl]piperazine], for which the Ki under setting [4] is under 1000 nM.

For `CC(=O)c1ccc(N2CCN(CC(=O)N3CCN(C4CCC4)CC3)CC2)nc1` [Compound 371, 1-(6-{4-[2-(4-cyclobutylpiperazin-1-yl)-2-oxoethyl]piperazin-1-yl}pyridin-3-yl)ethanone], the Ki under setting [4] is under 1000 nM.

`O=C1CCc2cc(N3CCC(C(=O)OCC(=O)N4CCN(C5CCC5)CC4)CC3)ccc21` [Compound 905, 2-(4-cyclobutylpiperazin-1-yl)-2-oxoethyl 1-(1-oxo-2,3-dihydro-1H-inden-5-yl)piperidine-4-carboxylate]: the Ki under setting [2] was under 1000 nM.

As to `CC(C)N1CCN(C(=O)CN2CCN(c3ccc4c(c3)OCO4)CC2)CC1` [Compound 258, 1-(1,3-benzodioxol-5-yl)-4-[2-(4-isopropylpiperazin-1-yl)-2-oxoethyl]piperazine], the Ki is under 1000 nM.

In the case of `COc1ccc(F)cc1-c1ccc(N2CCN(CC(=O)N3CCN(C4CCC4)CC3)CC2)nn1` [Compound 1045, 3-{4-[2-(4-cyclobutylpiperazin-1-yl)-2-oxoethyl]piperazin-1-yl}-6-(5-fluoro-2-methoxyphenyl) pyridazine], under setting [1], the Ki is under 1000 nM.

For the compound `CS(=O)(=O)c1ccc(N2CCN(CC(=O)N3CCN(C4CCCC4)CC3)CC2)cc1` [Compound 828, 1-cyclopentyl-4-({4-[4-(methylsulfonyl)phenyl]piperazin-1-yl}acetyl)piperazine], the Ki under setting [2] was under 1000 nM.

In the case of `O=C(O)c1ccc(N2CCN(CC(=O)N3CCN(C4CCC4)CC3)CC2)cc1` [Compound 1120, 4-{1-[2-(4-cyclobutylpiperazin-1-yl)-2-oxoethyl]piperazin-1-yl}benzoic acid], the Ki under setting [1] is under 1000 nM.

Take `O=C(CN1CCN(c2cnc(-c3cc(F)cc(F)c3)cn2)CC1)N1CCN(C2CCC2)CC1` [Compound 965, 2-{4-[2-(4-cyclobutylpiperazin-1-yl)-2-oxoethyl]piperazin-1-yl}-5-(3,5-difluorophenyl)pyrazine]: under setting [1], the Ki was under 1000 nM.

For the compound `O=C(CN1CCN(c2ccc(-c3cccc(F)c3)nn2)CC1)N1CCN(C2CCC2)CC1` [Compound 1004, 3-{4-[2-(4-cyclobutylpiperazin-1-yl)-2-oxoethyl]piperazin-1-yl}-6-(3-fluorophenyl)pyridazine], under setting [1], the Ki is under 1000 nM.

Consider `O=C(N1CCN(C2CCC2)CC1)N1CCC2(CC1)C(=O)N(Cc1ccccc1)c1ccccc12` [Compound 488, 1-benzyl-1′-[(4-cyclobutylpiperazin-1-yl)carbonyl]spiro[indole-3,4′-piperidin]-2(1H)-one], for which, under setting [6], the Ki was under 1000 nM.

On to `COc1cccc(N2CCN(CC(=O)N3CCN(C4CCC4)CC3)CC2)c1` [Compound 759, 1-cyclobutyl-4-{[4-(3-methoxyphenyl)piperazin-1-yl]acetyl}piperazine], for which, under setting [5], the inhibition constant (Ki) is under 1000 nM.

As for `CC(=O)c1ccc(N2CCN(CC(=O)N3CCN(C4CCCC4)CC3)CC2)cc1` [Compound 327, 1-(4-{4-[2-(4-cyclopentylpiperazin-1-yl)-2-oxoethyl]piperazin-1-yl}phenyl)ethanone], the Ki under setting [4] is under 1000 nM.

On to `O=C(CC1CCCC1)NC1CCN(CC(=O)N2CCN(C3CCC3)CC2)C1` (centres unmarked) [Compound 1248, N-{1-[2-(4-cyclobutylpiperazin-1-yl)-2-oxoethyl]pyrrolidin-3-yl}-2-cyclopentylacetamide], for which the Ki under setting [3] was under 1000 nM.

As for `O=C(CN1CCN(c2ccc(-c3ccc(Cl)cc3F)cc2)CC1)N1CCN(C2CCC2)CC1` [Compound 341, 1-(4′-chloro-2′-fluorobiphenyl-4-yl)-4-[2-(4-cyclobutylpiperazin-1-yl)-2-oxoethyl]piperazine], the Ki under setting [4] was under 1000 nM.

For the compound `CC(C)N1CCN(C(=O)CN2CCN(C(=O)C3CCCO3)CC2)CC1` (centres unmarked) [Compound 852, 1-isopropyl-4-{[4-(tetrahydrofuran-2-ylcarbonyl)piperazin-1-yl]acetyl}piperazine], under setting [2], the Ki is under 1000 nM.

Turning to `CC(C)(C)CNC(=O)c1cccc(N2CCN(CC(=O)N3CCN(C4CCC4)CC3)CC2)c1` [Compound 1085, 3-{4-[2-(4-cyclobutylpiperazin-1-yl)-2-oxoethyl]piperazin-1-yl}-N-(2,2-dimethylpropyl) benzamide], the Ki under setting [1] was under 1000 nM.

As to `O=C(c1ccc(N2CCN(CC(=O)N3CCN(C4CCC4)CC3)CC2)cc1)C1CCC1` [Compound 1194, cyclobutyl(4-{4-[2-(4-cyclobutylpiperazin-1-yl)-2-oxoethyl]piperazin-1-yl}phenyl)methanone], the Ki under setting [3] is under 1000 nM.

For the compound `O=C(NC1CCCCCC1)c1ccc(N2CCN(CC(=O)N3CCN(C4CCC4)CC3)CC2)nc1` [Compound 1185, 6-{4-[2-(4-cyclobutylpiperazin-1-yl)-2-oxoethyl]piperazin-1-yl}-N-cycloheptylnicotinamide], the inhibition constant Ki under setting [3] is under 1000 nM.

In the case of `CCC(C)N1CCN(C(=O)CN2CCN(c3ccc(Cl)c(C(F)(F)F)c3)CC2)CC1` (centres unmarked) [Compound 855, 1-sec-butyl-4-({4-[4-chloro-3-(trifluoromethyl)phenyl]piperazin-1-yl}acetyl)piperazine], the Ki under setting [2] was under 1000 nM.

With `COc1ccc(-c2cnc(N3CCN(CC(=O)N4CCN(C5CCC5)CC4)CC3)cn2)cc1OC` [Compound 945, 2-{4-[2-(4-cyclobutylpiperazin-1-yl)-2-oxoethyl]piperazin-1-yl}-5-(3,4-dimethoxyphenyl) pyrazine], the Ki under setting [1] was under 1000 nM.
